For orientation: AC50 means the concentration at which the activity in the assay is half-maximal. Usually Vmax stands for the rate approached at saturating substrate.

Data on five molecules can be found in PMC4501319, “Discovery of Selective Small-Molecule Activators of a Bacterial Glycoside Hydrolase” (Angewandte Chemie (International Ed. in English), 2014).

Data set [1] concerns β-N-Acetylglucosaminidase from Canavalia ensiformis (Jack bean). As to the kind of experiment: 4MU-GlcNAc substrate titration with commercially available β-N-acetylglucosaminidase. The data set is classed as biochemical. As to conditions: 4MU-GlcNAc substrate titration at pH 4.9 and pH 6.5. The source says: Figure S8: Effect of activators 2 and 4 on a β-N-Acetylglucosaminidase from Canavalia ensiformis (Jack
(B) titration at the same pH as used for the BtGH84 studies (pH 6.5).
Enzyme supplied by Sigma (purified from native source).
(1 picture or pasted object on this page, not shown here)

Data set [2] concerns the target T1, BtGH84 (Bacteroides thetaiotaomicron, UniProt Q89ZI2).
T1 construct: made in house
The data set can be described thus: Affinity by NMR spectroscopy using proton relaxation rates R2. The data set is classed as binding. The method, then: (§1) Compounds in the fragment library were purchased from Specs, additional structural neighbours were purchased from Specs and Enamine. O-(2-Acetamido-2-deoxy-D-glucopyranosylidene) amino-Z-N-phenylcarbamate (PUGNAc) was purchased from Tocris Bioscience.
(§2) The fragment library was assembled as described by Schulz et al.[1] and dissolved in DMSO-d6 to a concentration of 200 mM and quality controlled using 1H NMR spectroscopy. Instant JChem 5.3.8, 2010, ChemAxon (http://www.chemaxon.com), was used for structure database management.
(§3) NMR spectroscopy and fragment screening
(§4) NMR experiments were carried out on a Bruker Avance II 700 MHz NMR spectrometer equipped with a triple resonance probe and z axis gradients. Data were processed using Topspin 3.2 software. Three NMR experiments were used for the screening, STD NMR,[2] PO-WaterLOGSY,[3] and T1ρ-filtered[4] 1H NMR experiments. […] The experiments were recorded using the standard STD NMR pulse sequence with a 15 ms 6 kHz spin-lock pulse to reduce the background protein resonances and excitation sculpting to suppress the water resonance. […]
Figure S3. Dissociation constant of 2 for BtGH84 determined in the presence of PUGNAc with 1H R2 relaxation rates. […]

Data set [3] addresses T1, BtGH84. The data set can be described thus: 4MU-GlcNAc cleavage assay (fluorescent kinetic enzyme activity assay). The data set is classed as biochemical. To be noted: for Vmax(app): Michaelis–Menten fit, 1 % DMSO, substrate 50 μM to 2 mM, activator concentration 2 mM; for Kd: affinity of activator to the substrate-bound enzyme, read-out: αKA; for Vmax / α / β: non-essential activator equation fit to covariation experiments; for Vmax: activator 50 µM to 2 mM; for α: modifies KM; for β: modifies Vmax/kcat; for Emax: read-out: Maximum activation. The method, then: AC50 measurements of fragment activators were performed using a fluorescent kinetic assay. Assays were carried out in a 96 well plate (Black Nunc F96 MicroWell Plates) at 25°C in a total volume of 100 μl per well, buffer (50 mM MES pH 6.5, 200 mM NaCl, 0.01% Tween-20, 1% DMSO) with 500 μM 4-methylumbelliferyl-β-D-GlcNAc (4MU-GlcNAc), as substrate and 50 nM BtGH84. Reactions were initiated by addition of 10 μl of substrate, to a final concentration of 500 μM, followed by 5 s of shaking. Fluorescent 4-methylumbelliferyl release was recorded continuously at 355 nm excitation and 460 nm emission for 20 s using a BMG PolarStar Optima plate reader. Rates were calculated using Sigmaplot as the slope of the curve of the collected data. Corrections were made to the detected gradients to adjust for the inner filter effect of 4MU-GlcNAc and convert the gradients into units of μmol min-1 according to a standard curve of 4MU. […]
Kinetic experiments using 4MU-GlcNAc were carried out in an analogous manner except that reactions were initiated by a 10 μl injection of BtGH84, to a final concentration of 50 nM, in a well containing the substrate at the desired concentration. Values quoted throughout are mean and standard deviation of three independent […]
Apparent KM and Vmax values were calculated from a Michalis-Menten curve fit to 8-10 point substrate titrations at a constant concentration of the activator. The covariation experiments used the same range of substrate concentrations across an activator concentration range of 50 µM to 2 mM. The data obtained from these experiments was fit to the nonessential activator equation: […]
Here, [S] is the concentration of the […], [A] the concentration of the activator, α modifies KM, β modifies Vmax and KA is the half-max concentration of the activator. […]

The next data set is described as follows: Aqueous solubility. The data set is classed as physicochemical.
The target in data set [4] is T1, BtGH84. The data set can be described thus: STD NMR competition between activators. It is filed as binding. To be noted: in the presence of 2 (25 mM) as competitor. On the procedure:
as §1, §2, §3
as §4, with “experiments. All NMR screening data were collected at 288K and the samples contained 20 μM BtGH84, fragments at a concentration of approximately 200 μM per compound and 20 μM of TSP in 25 mM phosphate buffer containing 150 mM NaCl and 10% D2O at pH 7.4.” for “experiments.”

Setting [5] is: titration of activator from 50 μM to 2 mM, substrate concentration 500 μM.

Where “and” joins values, the source holds several entries; their conditions need not be identical. Equal entries are not always repeated.

T1 sequence (Q89ZI2 22-737, change not shown): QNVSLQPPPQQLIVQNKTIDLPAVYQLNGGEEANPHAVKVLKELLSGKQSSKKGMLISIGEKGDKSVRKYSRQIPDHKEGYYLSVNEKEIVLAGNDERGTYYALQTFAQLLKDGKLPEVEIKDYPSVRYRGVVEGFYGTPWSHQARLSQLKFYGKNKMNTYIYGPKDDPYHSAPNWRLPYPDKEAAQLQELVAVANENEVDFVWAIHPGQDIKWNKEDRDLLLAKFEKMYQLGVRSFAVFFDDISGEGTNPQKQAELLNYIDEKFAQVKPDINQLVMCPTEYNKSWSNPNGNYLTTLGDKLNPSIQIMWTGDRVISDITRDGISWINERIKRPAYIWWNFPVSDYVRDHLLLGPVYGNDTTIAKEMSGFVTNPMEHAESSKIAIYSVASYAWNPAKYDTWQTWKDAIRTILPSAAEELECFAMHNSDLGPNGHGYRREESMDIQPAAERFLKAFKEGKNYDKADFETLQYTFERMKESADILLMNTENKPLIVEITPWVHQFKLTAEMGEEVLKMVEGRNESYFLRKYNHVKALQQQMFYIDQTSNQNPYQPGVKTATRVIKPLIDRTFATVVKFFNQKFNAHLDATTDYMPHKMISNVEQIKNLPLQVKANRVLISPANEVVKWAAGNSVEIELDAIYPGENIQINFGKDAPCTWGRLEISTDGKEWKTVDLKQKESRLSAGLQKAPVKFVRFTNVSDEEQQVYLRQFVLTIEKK

On to `CCOc1ncnc2ccccc12` [Compound 2, 4-ethoxyquinazoline], for which the “activation of β-N-acetylglucosaminidase” value in data set [1] is “do not increase the activity”. Besides, the “affinity for BtGH84” value at BtGH84 [2] (in the absence of PUGNAc, compared with presence of PUGNAc) is “weaker”. In addition, the Kd on BtGH84 [2] (in the presence of PUGNAc (200 μM), 8 μM BtGH84, 298 K) came out at 3100 ± 700 µM. Also, the AC50 at BtGH84 [3] (activation, 4MU-GlcNAc substrate concentration 500 μM) is 3500 µM and ~3500 µM.

In the case of `CCOc1ncnc2sc(C)c(C)c12` [Compound 3], in “Aqueous solubility” (compared to the original activator 2), the aqueous solubility entry is “poor”. For the same molecule, the “highest concentration attainable at 1% DMSO” value in “Aqueous solubility” (enzyme assay buffer, 1% DMSO) came to 2 mM. Besides, on BtGH84 [3], the “Vmax(app)” value is 0.022 ± 0.001 µmol/min, the Vmax worked out at 0.019 ± 0.0007 µmol/min, the α came out at 0.061 ± 0.04 and the β worked out at 1.4 ± 0.1. Besides, at BtGH84 [3] (covariation experiments), the Kd worked out at 1090 µM and the βkcat was determined as 88.7 s⁻¹. In addition, at BtGH84 [3] (setting [5]), the AC50 stood at 575 ± 78 µM and the Emax is 284%.

With `Cc1sc2ncnc(N3CCOCC3)c2c1C` [Compound 4], the “activation of β-N-acetylglucosaminidase” value in data set [1] was “do not increase the activity”. Besides, at BtGH84 [3], the “Vmax(app)” value was 0.026 ± 0.002 µmol/min; the Vmax was found to be 0.018 ± 0.002 µmol/min; the α is 0.14 and 0.14 ± 0.02; the β was 1.7 and 1.7 ± 0.1. Further, on BtGH84 [3] (covariation experiments), the Kd is ~200 µM and 224 µM; the βkcat was 100 s⁻¹. Further, the “enhancement of substrate binding in the presence of the activator” value on BtGH84 [3] (from α, covariation experiments) is listed as roughly 7 fold. For the same molecule, the “increase of kcat in the presence of the activator” value at BtGH84 [3] (from β, covariation experiments) came to 1.7 fold. On BtGH84 [3] (setting [5]), half-maximal activity (AC50) was put at 259 ± 24 µM and the Emax was found to be 371%. The “saturation transfer (STD NMR signal) from BtGH84 to activator” value at BtGH84 [4] is “significantly diminished”.

`CCc1cc2c(N3CCOCC3)ncnc2s1` [Compound 5]: on BtGH84 [3], the “Vmax(app)” value is 0.024 ± 0.001 µmol/min, the Vmax was determined as 0.018 ± 0.0008 µmol/min, the α amounted to 0.17 ± 0.02 and the β was determined as 1.3 ± 0.07. At BtGH84 [3] (covariation experiments), the Kd is ~200 µM and 205 µM; the βkcat came out at 75.8 s⁻¹. On BtGH84 [3] (setting [5]), the half-maximal activity concentration (AC50) amounted to 274 ± 12 µM and the Emax came to 329%. Further, the “saturation transfer (STD NMR signal) from BtGH84 to activator” value on BtGH84 [4] is “clear loss in signal intensity”.

In the case of `c1nc(N2CCOCC2)c2ccsc2n1` [Compound 6], the “Vmax(app)” value at BtGH84 [3] amounted to 0.015 ± 0.002 µmol/min. On BtGH84 [3] (setting [5]), the activity was half-maximal at 702 ± 85 µM (AC50) and the Emax was found to be 234%.
